Test results as given in paper PMC12284294 (iScience, 2025).

Tests used:
[1] = tested on: human polymorphonuclear granulocytes (PMN; neutrophils); assay type: cell-based; details: SARS-CoV-2 omicron B.1.1.529 spike pool peptides, 10 µM, PMN, n=6
FPR1 = target: T1, FPR1 (Homo sapiens, UniProt P21462); assay type: cell-based
T1 construct: expressed in transfected cells; host or cells: HEK293T
T1 sequence (P21462 1-350): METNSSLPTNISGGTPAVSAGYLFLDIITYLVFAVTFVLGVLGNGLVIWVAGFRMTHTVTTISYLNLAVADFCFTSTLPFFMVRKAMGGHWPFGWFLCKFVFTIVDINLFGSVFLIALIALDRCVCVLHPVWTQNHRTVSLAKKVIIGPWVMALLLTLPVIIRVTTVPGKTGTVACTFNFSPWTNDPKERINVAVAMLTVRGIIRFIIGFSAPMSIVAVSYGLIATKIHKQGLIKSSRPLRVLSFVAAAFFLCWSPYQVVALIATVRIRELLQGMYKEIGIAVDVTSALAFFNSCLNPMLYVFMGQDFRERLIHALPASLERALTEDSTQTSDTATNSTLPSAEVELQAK

| Sequence | non-activators of FPR1 and PMNs: PMNs [1] | non-activators of FPR1 and PMNs: FPR1 (FPR1) | significant FPR1 activators (group of the spike peptide pool screening) (FPR1) | significant PMN activators (group of the spike peptide pool screening) [1] |
| --- | --- | --- | --- | --- |
| AGFNCYFPLKSYSFR | non-activators of FPR1 and PMNs | non-activators of FPR1 and PMNs |  |  |
| AGICASYQTQTKSHR | non-activators of FPR1 and PMNs | non-activators of FPR1 and PMNs |  |  |
| AISSVLNDIFSRLDK | non-activators of FPR1 and PMNs | non-activators of FPR1 and PMNs |  |  |
| ALGKLQDVVNHNAQA | non-activators of FPR1 and PMNs | non-activators of FPR1 and PMNs |  |  |
| APFFTFKCYGVSPTK | non-activators of FPR1 and PMNs | non-activators of FPR1 and PMNs |  |  |
| AQALNTLVKQLSSKF | non-activators of FPR1 and PMNs | non-activators of FPR1 and PMNs |  |  |
| AQKFKGLTVLPPLLT |  |  | significant FPR1 activators |  |
| ASYQTQTKSHRRARS | non-activators of FPR1 and PMNs | non-activators of FPR1 and PMNs |  |  |
| CEFQFCNDPFLDHKN | non-activators of FPR1 and PMNs | non-activators of FPR1 and PMNs |  |  |
| CNGVAGFNCYFPLKS | non-activators of FPR1 and PMNs | non-activators of FPR1 and PMNs |  |  |
| CPFDEVFNATRFASV | non-activators of FPR1 and PMNs | non-activators of FPR1 and PMNs |  |  |
| CTQLKRALTGIAVEQ | non-activators of FPR1 and PMNs | non-activators of FPR1 and PMNs |  |  |
| CVIAWNSNKLDSKVS | non-activators of FPR1 and PMNs | non-activators of FPR1 and PMNs |  |  |
| CYFPLKSYSFRPTYG | non-activators of FPR1 and PMNs | non-activators of FPR1 and PMNs |  |  |
| DFTGCVIAWNSNKLD | non-activators of FPR1 and PMNs | non-activators of FPR1 and PMNs |  |  |
| DLFLPFFSNVTWFHV |  |  | significant FPR1 activators | significant PMN activators |
| DLICAQKFKGLTVLP |  |  |  | significant PMN activators |
| DYSVLYNLAPFFTFK |  |  | significant FPR1 activators | significant PMN activators |
| FCNDPFLDHKNNKSW | non-activators of FPR1 and PMNs | non-activators of FPR1 and PMNs |  |  |
| FERDISTEIYQAGNK | non-activators of FPR1 and PMNs | non-activators of FPR1 and PMNs |  |  |
| FHVISGTNGTKRFDN | non-activators of FPR1 and PMNs | non-activators of FPR1 and PMNs |  |  |
| GAEYVNNSYECDIPI | non-activators of FPR1 and PMNs | non-activators of FPR1 and PMNs |  |  |
| IAARDLICAQKFKGL |  |  |  | significant PMN activators |
| IYKTPPIKYFGGFNF |  |  |  | significant PMN activators |
| KGLTVLPPLLTDEMI |  |  | significant FPR1 activators |  |
